# Tested on: CPA-CLP sepsis mouse model
# Test: Effects of LPC concentrations on mortalities/survivabilities in CPA-CLP sepsis mouse model (SEP008); s.c. 4 times 12-hr intervals from 6 hrs after CLP
# Assay type: in vivo, ICR mice
# Method: CPA is well known as an immunosuppressive agent. […] Then, the abdomen was closed following the general procedure.
# Then, body weight and mortality changes were observed.
# In the Sham and CLP control groups, 10 ml/kg of only 5% human serum albumin was subcutaneously dosed at the same intervals.
substance,measurement,setting,value
Lysophosphatidylcholine [LPC],minimal effective dose,CPA-CLP model,about 1 mg/kg
same,optimal effective dose,CPA-CLP model,10 mg/kg
same,Mortalities,"LPC 1 mpk, 1st CPA treat",0/10
same,survivabilities,"LPC 1 mpk, 1st CPA treat",100%
same,Mortalities,"LPC 1 mpk, 2nd CPA treat",0/10
same,survivabilities,"LPC 1 mpk, 2nd CPA treat",100%
same,Mortalities,"LPC 1 mpk, At CLP (day 0)",0/10
same,survivabilities,"LPC 1 mpk, At CLP (day 0)",100%
same,Mortalities,"LPC 1 mpk, Day 1",4/10
same,survivabilities,"LPC 1 mpk, Day 1",60%
same,Mortalities,"LPC 1 mpk, Day 2",2/6
same,survivabilities,"LPC 1 mpk, Day 2",40%
same,Mortalities,"LPC 1 mpk, Day 3",2/4
same,survivabilities,"LPC 1 mpk, Day 3",20%
same,Mortalities,"LPC 1 mpk, Day 4",2/2
same,survivabilities,"LPC 1 mpk, Day 4",0%
same,Mortalities,"LPC 1 mpk, Day 5",0/0
same,survivabilities,"LPC 1 mpk, Day 5",0%
same,Mortalities,"LPC 1 mpk, Day 6",0/0
same,survivabilities,"LPC 1 mpk, Day 6",0%
same,Mortalities,"LPC 1 mpk, Day 7",0/0
same,survivabilities,"LPC 1 mpk, Day 7",0%
same,Mortalities,"LPC 1 mpk, Total",10/10
same,survivabilities,"LPC 1 mpk, Total",0%
same,Mortalities,"LPC 2.5 mpk, 1st CPA treat",0/10
same,survivabilities,"LPC 2.5 mpk, 1st CPA treat",100%
same,Mortalities,"LPC 2.5 mpk, 2nd CPA treat",0/10
same,survivabilities,"LPC 2.5 mpk, 2nd CPA treat",100%
same,Mortalities,"LPC 2.5 mpk, At CLP (day 0)",0/10
same,survivabilities,"LPC 2.5 mpk, At CLP (day 0)",100%
same,Mortalities,"LPC 2.5 mpk, Day 1",2/10
same,survivabilities,"LPC 2.5 mpk, Day 1",80%
same,Mortalities,"LPC 2.5 mpk, Day 2",2/8
same,survivabilities,"LPC 2.5 mpk, Day 2",60%
same,Mortalities,"LPC 2.5 mpk, Day 3",3/6
same,survivabilities,"LPC 2.5 mpk, Day 3",30%
same,Mortalities,"LPC 2.5 mpk, Day 4",2/3
same,survivabilities,"LPC 2.5 mpk, Day 4",10%
same,Mortalities,"LPC 2.5 mpk, Day 5",1/1
same,survivabilities,"LPC 2.5 mpk, Day 5",0%
same,Mortalities,"LPC 2.5 mpk, Day 6",0/0
same,survivabilities,"LPC 2.5 mpk, Day 6",0%
same,Mortalities,"LPC 2.5 mpk, Day 7",0/0
same,survivabilities,"LPC 2.5 mpk, Day 7",0%
same,Mortalities,"LPC 2.5 mpk, Total",10/10
same,survivabilities,"LPC 2.5 mpk, Total",0%
same,Mortalities,"LPC 5 mpk, 1st CPA treat",0/10
same,survivabilities,"LPC 5 mpk, 1st CPA treat",100%
same,Mortalities,"LPC 5 mpk, 2nd CPA treat",0/10
same,survivabilities,"LPC 5 mpk, 2nd CPA treat",100%
same,Mortalities,"LPC 5 mpk, At CLP (day 0)",0/10
same,survivabilities,"LPC 5 mpk, At CLP (day 0)",100%
same,Mortalities,"LPC 5 mpk, Day 1",4/10
same,survivabilities,"LPC 5 mpk, Day 1",60%
same,Mortalities,"LPC 5 mpk, Day 2",1/6
same,survivabilities,"LPC 5 mpk, Day 2",50%
same,Mortalities,"LPC 5 mpk, Day 3",1/5
same,survivabilities,"LPC 5 mpk, Day 3",40%
same,Mortalities,"LPC 5 mpk, Day 4",1/4
same,survivabilities,"LPC 5 mpk, Day 4",30%
same,Mortalities,"LPC 5 mpk, Day 5",0/3
same,survivabilities,"LPC 5 mpk, Day 5",30%
same,Mortalities,"LPC 5 mpk, Day 6",2/3
same,survivabilities,"LPC 5 mpk, Day 6",10%
same,Mortalities,"LPC 5 mpk, Day 7",1/1
same,survivabilities,"LPC 5 mpk, Day 7",0%
same,Mortalities,"LPC 5 mpk, Total",10/10
same,survivabilities,"LPC 5 mpk, Total",0%
same,Mortalities,"LPC 10 mpk, 1st CPA treat",0/10
same,survivabilities,"LPC 10 mpk, 1st CPA treat",100%
same,Mortalities,"LPC 10 mpk, 2nd CPA treat",0/10
same,survivabilities,"LPC 10 mpk, 2nd CPA treat",100%
same,Mortalities,"LPC 10 mpk, At CLP (day 0)",0/10
same,survivabilities,"LPC 10 mpk, At CLP (day 0)",100%
same,Mortalities,"LPC 10 mpk, Day 1",1/10
same,survivabilities,"LPC 10 mpk, Day 1",90%
same,Mortalities,"LPC 10 mpk, Day 2",2/9
same,survivabilities,"LPC 10 mpk, Day 2",70%
same,Mortalities,"LPC 10 mpk, Day 3",1/7
same,survivabilities,"LPC 10 mpk, Day 3",60%
same,Mortalities,"LPC 10 mpk, Day 4",1/6
same,survivabilities,"LPC 10 mpk, Day 4",50%
same,Mortalities,"LPC 10 mpk, Day 5",1/5
same,survivabilities,"LPC 10 mpk, Day 5",40%
same,Mortalities,"LPC 10 mpk, Day 6",2/4
same,survivabilities,"LPC 10 mpk, Day 6",20%
same,Mortalities,"LPC 10 mpk, Day 7",2/2
same,survivabilities,"LPC 10 mpk, Day 7",0%
same,Mortalities,"LPC 10 mpk, Total",10/10
same,survivabilities,"LPC 10 mpk, Total",0%
same,Mortalities,"LPC 20 mpk, 1st CPA treat",0/10
same,survivabilities,"LPC 20 mpk, 1st CPA treat",100%
same,Mortalities,"LPC 20 mpk, 2nd CPA treat",0/10
same,survivabilities,"LPC 20 mpk, 2nd CPA treat",100%
same,Mortalities,"LPC 20 mpk, At CLP (day 0)",0/10
same,survivabilities,"LPC 20 mpk, At CLP (day 0)",100%
same,Mortalities,"LPC 20 mpk, Day 1",1/10
same,survivabilities,"LPC 20 mpk, Day 1",90%
same,Mortalities,"LPC 20 mpk, Day 2",1/9
same,survivabilities,"LPC 20 mpk, Day 2",80%
same,Mortalities,"LPC 20 mpk, Day 3",2/8
same,survivabilities,"LPC 20 mpk, Day 3",60%
same,Mortalities,"LPC 20 mpk, Day 4",2/6
same,survivabilities,"LPC 20 mpk, Day 4",40%
same,Mortalities,"LPC 20 mpk, Day 5",2/4
same,survivabilities,"LPC 20 mpk, Day 5",20%
same,Mortalities,"LPC 20 mpk, Day 6",0/2
same,survivabilities,"LPC 20 mpk, Day 6",20%
same,Mortalities,"LPC 20 mpk, Day 7",2/2
same,survivabilities,"LPC 20 mpk, Day 7",0%
same,Mortalities,"LPC 20 mpk, Total",10/10
same,survivabilities,"LPC 20 mpk, Total",0%
same,survival time,all the five doses of LPC in CPA-CLP mice,significantly increased

# From US9446061B2, “Composition containing antibiotics and lysophosphatidylcholine for boosting immunity or treatment of bacterial infections” (priority 2011, dated 2016)
